Source: patent US12303509B2, “Compounds for the treatment of BRAF-associated diseases and disorders” (Pfizer Inc., priority 2020, dated 2025)
pIC50: −log10 of the molar value. Counter-ions that a name gives are not always drawn. Like-named read-outs stand apart in the source and are kept apart here.

Assays:
[1] = target: BCRP (Homo sapiens (Human), UniProt Q9UNQ0); assay: BCRP MDCKII permeability assay: efflux ratio; type: in vitro ADME; details: dog
[2] = target: full-length FLAG-tagged B-Raf(V600E) (Homo sapiens (Human), UniProt P15056, V600E); assay: BRAF V600E enzyme assay (TR-FRET competitive displacement); type: binding
Outline: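 TR-FRET tracer competition: compound (top dose 10 μM, 3-fold, 11 points) incubated 60 min at ambient temperature with FLAG-tagged full-length B-Raf(V600E) (5 nM), Eu anti-FLAG cryptate (0.5 nM) and tracer (50 nM), pH 7.4 HEPES/MgCl2 buffer. 665/615 ratio converted to percent of control; IC50 where fitted curve crosses 50 POC.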

[3] = tested on: H1755 cells; assay: Cellular phospho-ERK inhibition assay in H1755 cells; type: cell-based; details: Homo sapiens, NCI-H1755, 2 hours treatment, read-out: H1755 Cell IC50
Outline: (§1)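 In Cell Western detection of phospho-ERK1/2 (Thr202/Tyr204) over GAPDH after 2 h compound exposure (66 pM to 10 μM, 9 points, 0.25% DMSO) of A375 cells in DMEM or H1755 cells in RPMI, both with 10% FBS. Percent of control set by DMSO and 10 μM binimetinib; 4-parameter IC50.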

[4] = MDR1 LLC-PK1 and BCRP MDCKII permeability assay: permeability coefficient (Papp); type: in vitro ADME
Text: (§2) Final organic concentration in the assay was 1%.

[5] = tested on: A375 cells; assay: Cellular phospho-ERK inhibition assay in A375 cells; type: cell-based; details: Homo sapiens, A-375, A375 cells (head prints A357), 2 hours treatment, read-out: A357 cell IC50
Outline: as §1

[6] = target: P-gp (MDR1) (Homo sapiens (Human), UniProt P08183); assay: MDR1 LLC-PK1 permeability assay: efflux ratio; type: in vitro ADME; details: pig
Text: as §2

[7] = averaged IC50, TR-FRET tracer displacement, 60 min

Sequence of BCRP (Q9UNQ0 whole entry): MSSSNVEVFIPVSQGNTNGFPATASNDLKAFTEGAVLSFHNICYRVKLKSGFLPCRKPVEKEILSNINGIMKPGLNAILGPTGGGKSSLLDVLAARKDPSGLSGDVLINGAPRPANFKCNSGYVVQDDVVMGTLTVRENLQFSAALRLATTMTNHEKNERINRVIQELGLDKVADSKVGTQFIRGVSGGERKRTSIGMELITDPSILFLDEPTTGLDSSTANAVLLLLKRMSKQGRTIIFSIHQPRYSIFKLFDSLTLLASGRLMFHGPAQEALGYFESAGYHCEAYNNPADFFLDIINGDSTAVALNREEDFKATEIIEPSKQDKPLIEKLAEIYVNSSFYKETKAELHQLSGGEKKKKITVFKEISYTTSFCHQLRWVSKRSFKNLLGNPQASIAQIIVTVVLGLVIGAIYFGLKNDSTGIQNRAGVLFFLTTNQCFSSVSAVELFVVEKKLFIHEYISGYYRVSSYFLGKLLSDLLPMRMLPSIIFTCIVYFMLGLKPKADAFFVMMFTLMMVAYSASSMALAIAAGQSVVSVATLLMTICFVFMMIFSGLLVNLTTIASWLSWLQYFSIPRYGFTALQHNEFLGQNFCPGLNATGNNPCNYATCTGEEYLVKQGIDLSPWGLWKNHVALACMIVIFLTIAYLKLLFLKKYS
Sequence of full-length FLAG-tagged B-Raf(V600E) (P15056 whole entry V600E): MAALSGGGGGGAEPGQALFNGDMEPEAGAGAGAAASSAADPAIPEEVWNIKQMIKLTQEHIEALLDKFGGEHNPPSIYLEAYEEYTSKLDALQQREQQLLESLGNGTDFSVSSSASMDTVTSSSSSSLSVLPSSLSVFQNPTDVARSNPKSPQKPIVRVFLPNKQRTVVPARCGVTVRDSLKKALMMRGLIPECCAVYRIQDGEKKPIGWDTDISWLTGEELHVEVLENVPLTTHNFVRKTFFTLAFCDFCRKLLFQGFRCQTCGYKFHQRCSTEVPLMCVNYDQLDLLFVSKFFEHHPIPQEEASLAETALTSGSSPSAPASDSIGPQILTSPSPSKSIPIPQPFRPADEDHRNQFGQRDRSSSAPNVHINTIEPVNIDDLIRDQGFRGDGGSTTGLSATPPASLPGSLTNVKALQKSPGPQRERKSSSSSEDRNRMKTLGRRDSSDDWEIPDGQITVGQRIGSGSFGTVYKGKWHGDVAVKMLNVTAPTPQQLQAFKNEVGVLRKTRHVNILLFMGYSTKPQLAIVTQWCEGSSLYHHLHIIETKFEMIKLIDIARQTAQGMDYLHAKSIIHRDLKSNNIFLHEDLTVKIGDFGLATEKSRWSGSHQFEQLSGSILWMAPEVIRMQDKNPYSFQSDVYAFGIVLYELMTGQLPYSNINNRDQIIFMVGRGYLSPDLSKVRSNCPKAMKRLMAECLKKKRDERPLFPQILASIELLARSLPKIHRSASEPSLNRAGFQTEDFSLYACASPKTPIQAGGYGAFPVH
Sequence of P-gp (MDR1) (P08183 whole entry, species assumed): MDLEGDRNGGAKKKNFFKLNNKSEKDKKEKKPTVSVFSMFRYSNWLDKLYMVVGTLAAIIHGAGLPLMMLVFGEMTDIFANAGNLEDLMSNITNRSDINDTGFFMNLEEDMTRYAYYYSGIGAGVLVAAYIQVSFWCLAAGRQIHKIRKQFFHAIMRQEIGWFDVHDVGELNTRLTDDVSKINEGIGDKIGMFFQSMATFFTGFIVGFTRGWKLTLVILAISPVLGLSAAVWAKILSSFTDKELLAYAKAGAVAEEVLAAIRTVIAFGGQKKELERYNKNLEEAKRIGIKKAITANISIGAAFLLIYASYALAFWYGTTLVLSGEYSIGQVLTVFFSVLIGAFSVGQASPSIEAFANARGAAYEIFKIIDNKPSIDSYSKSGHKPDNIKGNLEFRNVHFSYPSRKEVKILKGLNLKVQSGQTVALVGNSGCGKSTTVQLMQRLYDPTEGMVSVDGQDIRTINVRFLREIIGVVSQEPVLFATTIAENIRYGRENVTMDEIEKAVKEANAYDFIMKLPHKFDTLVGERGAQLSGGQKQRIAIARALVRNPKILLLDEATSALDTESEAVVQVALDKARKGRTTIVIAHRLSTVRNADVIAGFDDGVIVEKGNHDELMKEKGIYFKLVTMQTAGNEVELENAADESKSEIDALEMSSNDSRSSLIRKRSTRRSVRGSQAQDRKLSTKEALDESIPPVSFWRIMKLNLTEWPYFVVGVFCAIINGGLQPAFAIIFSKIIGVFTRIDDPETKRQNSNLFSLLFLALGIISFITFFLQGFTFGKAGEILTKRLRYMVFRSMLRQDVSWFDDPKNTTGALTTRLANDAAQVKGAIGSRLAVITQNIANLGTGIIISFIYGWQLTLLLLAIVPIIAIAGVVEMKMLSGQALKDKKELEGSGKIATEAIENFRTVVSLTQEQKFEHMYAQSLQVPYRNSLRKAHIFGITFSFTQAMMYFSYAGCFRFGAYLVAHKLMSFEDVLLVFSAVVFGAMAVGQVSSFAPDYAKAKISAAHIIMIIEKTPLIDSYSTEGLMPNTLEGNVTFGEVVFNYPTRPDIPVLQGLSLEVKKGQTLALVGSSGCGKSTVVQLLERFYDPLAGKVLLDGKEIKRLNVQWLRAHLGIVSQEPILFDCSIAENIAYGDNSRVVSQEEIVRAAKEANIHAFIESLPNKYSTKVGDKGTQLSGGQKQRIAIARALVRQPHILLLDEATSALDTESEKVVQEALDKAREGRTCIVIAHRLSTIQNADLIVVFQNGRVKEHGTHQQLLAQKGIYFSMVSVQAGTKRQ

efflux ratio at 2 h, 1 µM [1]	pIC50 [2]	pIC50 [3]	Papp at 2 h, 1 µM [4]	pIC50 [5]	efflux ratio at 2 h, 1 µM [6]	pIC50 [2, 7]	SMILES
0.9	8.15	7.06	25 ×10⁻⁶ cm/s	7.66	0.8		Cc1c(Oc2c(F)ccc(NS(=O)(=O)N3CCCC3)c2Cl)ccc2ncn(C)c(=O)c12 [Example 69, N-(2-chloro-3-((3,5-dimethyl-4-oxo-3,4-dihydroquinazolin-6-yl)oxy)-4-fluorophenyl)pyrrolidine-1-sulfonamide]
0.9		6.79	40 ×10⁻⁶ cm/s	7.16	1.2	6.52	Cc1c(Nc2c(F)ccc(NS(=O)(=O)N(C)C)c2Cl)ccc2ncn(C)c(=O)c12 [Example 71, N-(2-chloro-3-((3,5-dimethyl-4-oxo-3,4-dihydroquinazolin-6-yl)amino)-4-fluorophenyl)-(N,N-dimethyl)-sulfamide]
1.9		6.81	32 ×10⁻⁶ cm/s	7.51	2.2	7.17	CN(C)S(=O)(=O)Nc1ccc(F)c(Nc2ccc3ncn(C)c(=O)c3c2F)c1Cl [Example 83, N-(2-chloro-4-fluoro-3-((5-fluoro-3-methyl-4-oxo-3,4-dihydroquinazolin-6-yl)amino)phenyl)-(N.N-dimethyl)-sulfamide]
1.6		6.74	28 ×10⁻⁶ cm/s	7.47	1.9	7.38	Cc1c(Nc2c(F)ccc(NS(=O)(=O)N3CC[C@H](F)C3)c2Cl)ccc2ncn(C)c(=O)c12 [Example 86, (S)-N-(2-chloro-3-((3,5-dimethyl-4-oxo-3,4-dihydroquinazolin-6-yl)amino)-4-fluorophenyl)-3-fluoropyrrolidine-1-sulfonamide trifluoroacetate]
0.6		6.67	21 ×10⁻⁶ cm/s	7.14	1	7.48	Cc1c(Nc2c(F)ccc(NS(=O)(=O)N3CC4CC3C4)c2Cl)ccc2ncn(C)c(=O)c12 [Example 87, N-(2-chloro-3-((3,5-dimethyl-4-oxo-3,4-dihydroquinazolin-6-yl)amino)-4-fluorophenyl)-2-azabicyclo[2.1.1]hexane-2-sulfonamide trifluoroacetate]
6.8		6.10	25 ×10⁻⁶ cm/s	6.95	2.7	8.70	Cc1c(Nc2c(F)c(F)cc(NS(=O)(=O)N3C[C@@H](F)[C@@H](F)C3)c2Cl)ccc2ncn(C)c(=O)c12 [Example 95, cis-N-(2-chloro-3-((3,5-dimethyl-4-oxo-3,4-dihydroquinazolin-6-yl)amino)-4,5-difluorophenyl)-3,4-difluoropyrrolidine-1-sulfonamide]
1.1		6.23	27 ×10⁻⁶ cm/s	7.40	1.2	8.52	Cc1c(Nc2c(F)c(F)cc(NS(=O)(=O)N3CCCC3)c2Cl)ccc2ncn(C)c(=O)c12 [Example 96, N-(2-chloro-3-((3,5-dimethyl-4-oxo-3,4-dihydroquinazolin-6-yl)amino)-4,5-difluorophenyl)pyrrolidine-1-sulfonamide]
1.3		6.51	22 ×10⁻⁶ cm/s	6.88	1.2	8.30	Cc1c(Nc2cc(Cl)cc(NS(=O)(=O)N3CCCC3)c2F)ccc2ncn(C)c(=O)c12 [Example 104, N-(5-chloro-3-((3,5-dimethyl-4-oxo-3,4-dihydroquinazolin-6-yl)amino)-2-fluorophenyl)pyrrolidine-1-sulfonamide]

Further lines, the compound ahead of its results:

SMILES	efflux ratio at 2 h, 1 µM [1]	pIC50 [2]	pIC50 [3]	Papp at 2 h, 1 µM [4]	pIC50 [5]	efflux ratio at 2 h, 1 µM [6]	pIC50 [2, 7]
Cn1cnc2ccc(Oc3c(F)ccc(NS(=O)(=O)N4CC5CC4C5)c3Cl)c(Cl)c2c1=O [Example 67, N-(2-chloro-3-((5-chloro-3-methyl-4-oxo-3,4-dihydroquinazolin-6-yl)oxy)-4-fluorophenyl)-2-azabicyclo[2.1.1]hexane-2-sulfonamide]	1	8.70	7.12	24 ×10⁻⁶ cm/s	8.10	1.4	
CCN(C)S(=O)(=O)Nc1ccc(F)c(Oc2ccc3ncn(C)c(=O)c3c2C)c1Cl [Example 68, 6-(2-Chloro-3-{[ethyl(methyl)sulfamoyl]amino}-6-fluorophenoxy)-3,5-dimethyl-3,4 dihydroquinazolin-4-one]	1	7.68	6.54	25 ×10⁻⁶ cm/s	7.19	0.7	
Cc1c(Nc2c(F)ccc(NS(=O)(=O)N3CC[C@@H](OC(F)F)C3)c2Cl)ccc2ncn(C)c(=O)c12 [Example 89]	1		6.76	21 ×10⁻⁶ cm/s	7.30	1.3	7.85
Cc1c(Nc2c(F)ccc(NS(=O)(=O)N3C[C@@H](F)[C@@H](F)C3)c2Cl)ccc2ncn(C)c(=O)c12 [Example 90, (cis)-N-(2-chloro-3-((3,5-dimethyl-4-oxo-3,4-dihydroquinazolin-6-yl)amino)-4-fluorophenyl)-3,4-difluoropyrrolidine-1-sulfonamide]	3.5		6.90	31 ×10⁻⁶ cm/s	7.31	2.3	8.05
Cc1c(Nc2c(F)ccc(NS(=O)(=O)N3CC4CC4C3)c2Cl)ccc2ncn(C)c(=O)c12 (stereo not drawn) [Example 92, N-(2-chloro-3-((3,5-dimethyl-4-oxo-3,4-dihydroquinazolin-6-yl)amino)-4-fluorophenyl)-3-azabicyclo[3.1.0]hexane-3-sulfonamide]	1.9		7.46	22 ×10⁻⁶ cm/s	7.44	1.2	8.10
Cc1c(Nc2c(F)ccc(NS(=O)(=O)N3CCC(F)(F)C3)c2Cl)ccc2ncn(C)c(=O)c12 [Example 93, N-(2-chloro-3-((3,5-dimethyl-4-oxo-3,4-dihydroquinazolin-6-yl)amino)-4-fluorophenyl)-3,3-difluoropyrrolidine-1-sulfonamide]	0.8		6.71	33 ×10⁻⁶ cm/s	7.22	1.4	8.52
CCC1CCN(S(=O)(=O)Nc2ccc(F)c(Nc3ccc4ncn(C)c(=O)c4c3Cl)c2Cl)C1 (stereo not drawn) [Example 94, N-(2-chloro-3-((5-chloro-3-methyl-4-oxo-3,4-dihydroquinazolin-6-yl)amino)-4-fluorophenyl)-3-ethylpyrrolidine-1-sulfonamide trifluoroacetate]	1.7		6.55	22 ×10⁻⁶ cm/s	6.86	0.9	7.70
CCN(C)S(=O)(=O)Nc1cc(F)c(F)c(Nc2ccc3ncn(C)c(=O)c3c2C)c1Cl [Example 97, N-(2-chloro-3-((3,5-dimethyl-4-oxo-3,4-dihydroquinazolin-6-yl)amino)-4,5-difluorophenyl)-(N-ethyl-N-methyl)-sulfamide]	1.8		6.21	30 ×10⁻⁶ cm/s	7.06	0.9	8.00
CO[C@@H]1CCN(S(=O)(=O)Nc2cc(F)c(F)c(Nc3ccc4ncn(C)c(=O)c4c3C)c2Cl)C1 [Example 99, (R)-N-(2-chloro-3-((3,5-dimethyl-4-oxo-3,4-dihydroquinazolin-6-yl)amino)-4,5-difluorophenyl)-3-methoxypyrrolidine-1-sulfonamide]	1.4		7.00	34 ×10⁻⁶ cm/s	7.48	1.7	8.30
Cc1c(Nc2cc(Cl)cc(NS(=O)(=O)N3CC[C@@H](F)C3)c2F)ccc2ncn(C)c(=O)c12 [Example 103, (R)-N-(5-chloro-3-((3,5-dimethyl-4-oxo-3,4-dihydroquinazolin-6-yl)amino)-2-fluorophenyl)-3-fluoropyrrolidine-1-sulfonamide]	3.5		6.44	25 ×10⁻⁶ cm/s	6.93	3.2	8.30
CC[C@@H]1CCN(S(=O)(=O)Nc2ccc(F)c(Nc3ccc4ncn(C)c(=O)c4c3Cl)c2Cl)C1 [Example 106, (R)-N-(2-chloro-3-((5-chloro-3-methyl-4-oxo-3,4-dihydroquinazolin-6-yl)amino)-4-fluorophenyl)-3-ethylpyrrolidine-1-sulfonamide trifluoroacetate]	0.8		6.37	22 ×10⁻⁶ cm/s	6.88	1.2	7.92
